Measurements from US20140242180A1, “NANOPARTICLES FOR CONTROLLING BLEEDING AND DRUG DELIVERY” (CASE WESTERN RESERVE UNIVERSITY, priority 2011, published 2014).
“Also recorded” adds a separate entry of the source.

Test system: activated platelets
Assay: in vitro screening of activated labeled platelets binding to polymer-modified surfaces
Format: cell-based
Conditions: preliminary work; PEG 4600
Description: An in vitro system was developed for high throughput screening of the coagulation efficiency of the synthetic platelets with the platelets labeled using CellTracker green following to facilitate ease of analysis. Essentially, this assay involves activating platelets which have been previously labeled with CellTracker and looking at the number that bind to surfaces modified with a polymer systems under agitation. This assay was validated with collagen. This system allowed one to efficiently and independently vary the PEG molecular weight and RGD motif (i.e. RGD, RGDS, and GRGDS).

Substance: GRGDS [GRGDS peptide]
- adhesion and aggregation of activated platelets: efficient adhesion and aggregation; also recorded: good binding and adhesion
